Source: patent publication US20020127605A1 (priority 2000, published 2002)
Like-named read-outs stand apart in the source and are kept apart here.

Assays:
[1] = molecular target: T1, recombinant rat CyPA-GST fusion protein (Rattus norvegicus, UniProt P10111); test: Rotamase (prolyl peptidyl cis-trans isomerase) inhibition, chymotrypsin-coupled cuvette assay; assay type: biochemical
T1 construct: made in house; host or cells: E. coli BL21
Text: (§1) A number of substrates for rotamase are known in the art or can be derived from those known. Typically, the substrate contacts a sample containing a protein with rotamase activity and the conversion of the substrate is detected after a period of time. The method for detecting conversion of the substrate will vary with the particular substrate chosen. One method has been termed the Ki test (See Harding, et al., Nature, 341:758-760 (1989). The cis-trans isomerization of an alanine-proline bond in a model substrate, N-succinyl-Ala-Ala-Pro-Phe-p-nitroanilide, is monitored spectrophotometrically in a chymotrypsin-coupled assay. The action of chymotrypsin releases p-nitroaniline from only the trans form of the substrate. The amount of p-nitroaniline can be monitored in a spectrophotometer, for example. Other methods of detecting the presence of p-nitroaniline can also be used. The inhibition of this reaction caused by different concentrations of inhibitor is determined and the data are analyzed as a change in first-order rate constant as a function of inhibitor concentration, which yields the Ki value.
(§2) The following were added to a plastic cuvette: […] of ice cold assay buffer (25 mM HEPES, pH 7.8, 100 mM NaCl), 10 μL of CyP A (2.5 μM in 10 mM Tris-Cl pH 7.5, 100 mM NaCl, 1 mM dithiothreitol), 25 μL of chymotrypsin (50 mg/ml in 1 mM HCl), and 10 μL of test compound, at various concentrations, in dimethyl sulfoxide. The reaction was initiated by the addition of 5 μL of substrate (succinyl-Ala-Phe-Pro-Phe-para-nitroanilide, 5 mg/mL in 470 mM LiCl in trifluoroethanol). The absorbance at 390 nm versus time was monitored for 90 seconds using a spectrophotometer and the rate constants were determined from the absorbance versus time data files.
(§3) The IC50 values that were obtained for representative compounds in the following Table I refer to the concentration that inhibits 50% of the rotamase activity in a sample. […] The Cyclophilin utilized was a recombinant rat CyPA-GST fusion protein: CypA was amplified from rat brain cDNA using standard PCR methods, primed with the following sequences: 5′ CCCCCCGGGAGTCAACCCCACCGTGTTCTTCGA 3′ and 5′ GGAGATCTAGAGTTGTCCACAGTCGGAGATGGT 3′. The resulting fragment (573 base pairs) was cloned into pCRII and amplified. The CyP sequence was cut out with Smal and EcoRl and cloned into the Smal/EcoRl sites in pGEX2TK (Pharmacia). This plasmid was transformed into BL21 E. coli cells for expression of the GST-CyPA fusion protein.

[2] = tested on: striatal tyrosine hydroxylase-immunoreactive fibres; test: MPTP-lesioned mouse model of Parkinson's disease, striatal TH fiber density; assay type: in vivo; details: 10 mg/kg s.c. in Intralipid once daily days 1-5, one hour prior to MPTP; analysis day seven
Text: MPTP (N-methyl-4-phenyl-1,2,3,6-tetrahydropyridine) is a systemically available neurotoxin specific to nigrostriatal dopaminergic neurons, i.e. to the cells that degenerate in human Parkinson's disease. Administration of MPTP to mice leads to a selective partial destruction of the mesotelencephalic dopaminergic projection, and to a loss of dopamine and dopaminergic fibres in the corpus striatum, which is the main forebrain target of midbrain dopaminergic neurons.
Young adult male CD1 albino mice (Harlan—Sprague Dawley; 22-25 g) were dosed i.p. with the dopamine cell-specific neurotoxin N-methyl-4-phenyl-1,2,3,6-tetrahydropyridine (MPTP hydrochloride, calculated as 34 mg/kg free base), dissolved in saline at a concentration of 3.4 mg/ml free base once daily on days one to five. […]
Blinded analysis of TH fiber density in the central striatum was performed at 630× magnification. […] The percentage of sample field covered by TH positive processes and terminals was calculated using an image analysis program (“Simple,” Compix Inc., Pittsburgh, Pa.). The mean striatal innervation density was calculated for each group. The magnitude of striatal deafferentation due to the MPTP lesion was assessed by dividing the observed striatal innervation values obtained in MPTP/vehicle treated cases by the mean striatal innervation density in the Vehicle/Vehicle group and expressed as % loss. […]

[3] = molecular target: T2, human recombinant CyPA (Homo sapiens, UniProt P62937); test: Semiautomated microtiter plate assay of rotamase activity inhibition; assay type: biochemical; details: 30 minute preincubation at 4° C., read-out: IC50 (rotamase inhibition, modified plate reader assay)
T2 sequence (P62937 whole entry): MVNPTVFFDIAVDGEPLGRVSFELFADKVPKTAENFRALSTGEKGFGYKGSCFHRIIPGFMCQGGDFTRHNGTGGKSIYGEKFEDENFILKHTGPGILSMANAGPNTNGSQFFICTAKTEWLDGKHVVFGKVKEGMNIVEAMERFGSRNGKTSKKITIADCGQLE
Protocol: Semiautomated Assay of Rotamase Activity Inhibition: Rotamase inhibition was determined using a semiautomated microtiter plate assay modification of the above described assay [see Küillertz et al., Clin. Chem. 44, 502-508 (1998)]. All dilutions of CyPA, peptide substrate, and chymotrypsin were made in 35 mM ice-cold HEPES buffer. Fifty μL of CyPA solution were added to 50 μL of peptide substrate solution (Phe-Pro-Phe p-nitroanilide, 0.16 mg/ml) in a glass microtiter well plate (the concentration of human recombinant CyP being adjusted so that the reaction rate is increased by a factor of 3 as compared to an uncatalyzed control reaction wherein the peptide substrate is degraded by chymotrypsin alone, in the absence of CyPA and test compound). Using a Beckman Multimek™ 96 automated 96-channel pipettor, 5 μL of test compound solution, or a DMSO blank, were added to each well for a 30 minute preincubation at 4° C. One hundred μL of chymotrypsin solution (1 mg/mL) were added to each well and the absorbance at 390 nm versus time was monitored for 9-10 minutes using a BioRad Ultramark plate reader maintained at 4° C. and the rate constants were determined from the absorbance versus time data files. The cyclophilin utilized was a human recombinant CyPA [Yoo et al., J. Mol. Biol., 269 (1997) 780-95].
IC50 values which were obtained for representative compounds using this modified plate reader assay of rotamase inhibition are given in the following Table II: […]

[4] = molecular target: T2, human recombinant CyPA; test: Rotamase inhibition, chymotrypsin-coupled cuvette assay (asterisked values); assay type: biochemical
Text: as §1, §2, §3

[5] = tested on: Sprague-Dawley rat lumbar spinal cord slices; test: Neuroprotection assay in spinal cord slice preparations (THA-induced cell death); assay type: cell-based; details: THA 200 μM + compound 10 μM
Protocol: Neuroprotection Assay in Spinal Cord Slice Preparations: All cultures were derived from postnatal day 8 (P8) Sprague-Dawley rat lumbar spinal cord slices of 325 micron thickness, prepared using a commercially available Mcllwain tissue chopper. Each experiment consisted of two 6-well plates with 5 slices from 4 different animals per well. Media changes were performed every 3 to 4 days. Cultures were treated with THA [L(−)-threo-3-hydroxyaspartic acid; Tocris Cookson Inc., Ballwin, Mo.] at 200 μM+compound (10 μM) after one week in culture. The control was an untreated sample with 0.1% DMSO as vehicle. The THA control was a THA treated sample with 0.1% DMSO as vehicle. Two wells were used per condition. One media change with new THA and compounds was performed. […] Quantification of surviving neurons was performed on a Zeiss Axiovert microscope. Neuronal survival was determined by observing an intact neuronal cell body with processes located ventrally of the central canal in each hemisphere. […] Each hemisphere was counted individually. The statistics were performed with StatView™ software on a minimum of three different experiments per condition and significance was determined as compared to THA control. The percent of protection was determined from the average number of living neurons by the following equation: (drug treatment condition−THA control)/(Untreated control−THA control). […]

[6] = human recombinant CyPA, values with asterisk, read-out: IC50 (rotamase activity)

T1 sequence (P10111 2-164): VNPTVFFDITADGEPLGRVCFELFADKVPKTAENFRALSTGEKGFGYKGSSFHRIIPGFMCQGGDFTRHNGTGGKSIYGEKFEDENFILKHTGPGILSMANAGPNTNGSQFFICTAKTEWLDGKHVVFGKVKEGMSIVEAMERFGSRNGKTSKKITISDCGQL

Row | Structure (SMILES) | IC50 [3] [nM] | IC50 [4, 6] [nM] | further results
1 | O=C(Nc1cccc(N(S(=O)(=O)c2cc(Cl)cc(Cl)c2)S(=O)(=O)c2cc(Cl)cc(Cl)c2)c1)c1cc(Cl)cc(Cl)c1 [Compound 8a] |  |  | IC50 [1]: 364 nM; protection of striatal tyrosine hydroxylase-immunoreactive fibres [2]: 37,2%
2 | O=C(CCCCc1ccccc1)Nc1cccc(C(=O)NNC(=S)Nc2ccc(Cl)c(Cl)c2)c1 [Compound 33, 1-{3-[(5-Phenyl)valeroylamino]benzoyl}-4-(3,4-dichlorophenyl)thiosemicarbazide] | 713 | 85 | 
3 | O=C(Nc1cccc(N(S(=O)(=O)c2ccc3ccccc3c2)S(=O)(=O)c2ccc3ccccc3c2)c1)c1cc(Cl)cc(Cl)c1 [Compound 8] |  |  | IC50 [1]: 701 nM; IC50 [4]: 804 nM
4 | S=C(Nc1ccc(I)cc1)NC1CCCCC1NC(=S)Nc1ccc(I)cc1 (stereo not shown) [Compound 13, [(4-iodophenyl)amino]{[2-({[(4-iodophenyl)amino]thioxomethyl}amino)cyclohexyl]amino}methane-1-thione] | 2060 |  | IC50 ([1]; recombinant rat CyPA-GST fusion protein, values without asterisk, read-out: IC50 (rotamase activity)): 680 nM
5 | S=C(Nc1cc(Cl)cc(Cl)c1)Nc1cccc(C=NN(c2ccccc2)c2ccccc2)c1 [Compound 21, ({3-[2-aza-2-(diphenylamino)vinyl]phenyl}amino)[(3,5-dichlorophenyl)amino]methane-1-thione] |  | 512 | 
6 | O=C(NNC(=O)c1cccc(NC(=O)c2cccc(OCc3ccccc3)c2)c1)c1cc(Cl)cc(Cl)c1 [Compound 30, 1-{3-[(3-Benzyloxy)phenylcarboxamido]benzoyl}-2-(3,5-dichlorobenzoyl)hydrazine] | 3760 | 464 | 
7 | O=S(=O)(Oc1cccc(NC(=S)Nc2cc(Cl)cc(Cl)c2)c1)c1c(F)c(F)c(F)c(F)c1F [Compound 22, 3-({[(3,5-dichlorophenyl)amino]thioxomethyl}amino)phenyl 2,3,4,5,6-pentafluorobenzenesulfonate] |  | 733 | 
8 | O=C(Nc1cc(Cl)cc(Cl)c1)N[C@H]1CCCC[C@H]1NC(=O)Nc1cc(Cl)cc(Cl)c1 [Compound 15a] |  |  | protection from THA-induced cell death [5]: complete protection; SMI-32 immunoreactive neurons per ventral hemisphere ([5]; untreated control 26.4±4.2, THA control 15.97±2.04, mean±standard error): 26.5±2.7 cells/ventral hemisphere; IC50 [1]: 610 nM; protection of striatal tyrosine hydroxylase-immunoreactive fibres [2]: 72.4%; IC50 [4]: 521 nM
9 | O=C(NNS(=O)(=O)c1ccc(Cl)c(Cl)c1)c1cccc(NC(=O)c2cccc(OCc3ccccc3)c2)c1 [Compound 31, 1-{3-[(3-Benzyloxy)phenylcarboxamido]benzoyl}-2-(3,4-dichlorobenzenesulfonyl)hydrazine] | 2710 | 974 | 
10 | O=C(CCCCc1ccccc1)Nc1cccc(C(=O)NNC(=S)NC23CC4CC(CC(C4)C2)C3)c1 [Compound 41, 1-[(6-Phenyl-1-aza-2-oxo)hexyl]-3-{[(adamant-1-yl)-1-oxo-2,3,5-triaza-4-thio]pentyl}-benzene] | 5190 |  | 
11 | O=C(CCCCCCc1ccccc1)Nc1cccc(C(=O)NNC(=S)Nc2ccc(Cl)c(Cl)c2)c1 [Compound 37, 1-{3-[(7-Phenyl)heptanoylamino]benzoyl}-4-(3,4-dichlorophenyl)thiosemicarbazide] | 532 |  | 
12 | O=C(CCCCCc1cccc(C(F)(F)F)c1)Nc1cccc(S(=O)(=O)NC(=S)Nc2ccc(Cl)c(Cl)c2)c1 [Compound 45] | 130 |  | 
13 | O=C(CCCCc1ccccc1)Nc1cccc(NC(=O)CC(=O)Nc2ccc(Cl)c(Cl)c2)c1 [Compound 42, 1-[(6-Phenyl-1-aza-2-oxo)hexyl]-3-{[5-(3,4-dichlorophenyl)-1,5-diaza-2,4-oxo]pentyl}-benzene] | 6090 |  | 
14 | O=C(CCCCc1ccccc1)Nc1cccc(-c2nnc(Nc3ccc(Cl)c(Cl)c3)s2)c1 [Compound 40A, 5-Phenyl-pentanoic acid {3-[5-(3,4-dichloro-phenylamino)-[1,3,4]thiadiazol-2-yl]-phenyl}-amide] | 2800 |  | 
15 | O=C(CCCCc1ccccc1)Nc1ccc(C(=O)NNC(=S)Nc2ccc(Cl)c(Cl)c2)cc1 [Compound 43, 1-{4-[(5-Phenyl)pentanoylamino]benzoyl}-4-(3,4-dichlorophenyl)thiosemicarbazide] | 1570 |  | 
